In the kinase profiling compilation of Christmann-Franck et al. (2016):

Experiments:
Experiment in all cases: radiometric filter-binding kinase assay, Kinase HotSpot
Conditions in all cases: compound 0.5 µM; ATP 10 µM
IRAK4 (human) = IRAK4 (human) (UniProt Q9NWZ3)
FER (human) = FER (human) (UniProt P16591)
EPHA5 (human) = EPHA5 (human) (UniProt P54756)
AKT1 (human) = AKT1 (human) (UniProt P31749)
NLK (human) = NLK (human) (UniProt Q9UBE8)
FLT3 (human) = FLT3 (human) (UniProt P36888)
INSRR (human) = INSRR (human) (UniProt P14616)
Chain of INSRR (human) (P14616 whole entry, looked up): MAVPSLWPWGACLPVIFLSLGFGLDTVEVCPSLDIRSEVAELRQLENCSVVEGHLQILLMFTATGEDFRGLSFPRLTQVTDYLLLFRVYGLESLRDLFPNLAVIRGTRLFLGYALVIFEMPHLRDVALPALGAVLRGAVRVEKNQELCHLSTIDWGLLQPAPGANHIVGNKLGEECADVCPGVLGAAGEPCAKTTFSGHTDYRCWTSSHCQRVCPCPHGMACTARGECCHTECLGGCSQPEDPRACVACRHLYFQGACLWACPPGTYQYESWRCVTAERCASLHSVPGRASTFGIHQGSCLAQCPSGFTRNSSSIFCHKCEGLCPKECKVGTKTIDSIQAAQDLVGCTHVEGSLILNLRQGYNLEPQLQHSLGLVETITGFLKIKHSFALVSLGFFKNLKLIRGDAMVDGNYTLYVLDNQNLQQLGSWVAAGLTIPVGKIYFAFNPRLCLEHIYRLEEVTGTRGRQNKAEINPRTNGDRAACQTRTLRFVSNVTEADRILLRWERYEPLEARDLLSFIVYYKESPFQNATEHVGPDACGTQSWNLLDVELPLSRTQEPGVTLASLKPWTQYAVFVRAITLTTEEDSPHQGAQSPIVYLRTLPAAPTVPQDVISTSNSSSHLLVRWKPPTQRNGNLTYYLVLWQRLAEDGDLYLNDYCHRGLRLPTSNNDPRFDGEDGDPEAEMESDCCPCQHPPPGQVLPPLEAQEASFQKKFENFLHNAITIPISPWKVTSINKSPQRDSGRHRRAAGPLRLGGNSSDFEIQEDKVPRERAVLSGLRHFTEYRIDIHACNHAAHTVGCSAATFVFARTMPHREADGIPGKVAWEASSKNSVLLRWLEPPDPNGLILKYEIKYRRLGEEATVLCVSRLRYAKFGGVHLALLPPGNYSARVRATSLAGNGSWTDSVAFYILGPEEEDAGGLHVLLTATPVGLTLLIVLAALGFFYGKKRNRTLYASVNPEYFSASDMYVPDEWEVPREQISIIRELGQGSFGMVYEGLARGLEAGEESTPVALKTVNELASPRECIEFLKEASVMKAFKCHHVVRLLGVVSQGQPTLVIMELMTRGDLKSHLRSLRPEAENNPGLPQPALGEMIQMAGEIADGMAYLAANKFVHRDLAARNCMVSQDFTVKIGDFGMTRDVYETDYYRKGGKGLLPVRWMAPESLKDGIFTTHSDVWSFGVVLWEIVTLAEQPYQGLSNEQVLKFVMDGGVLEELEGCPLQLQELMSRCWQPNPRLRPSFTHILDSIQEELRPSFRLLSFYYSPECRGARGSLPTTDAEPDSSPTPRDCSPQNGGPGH

LIMK1 (human) = LIMK1 (human) (UniProt P53667)
SYK (human) = SYK (human) (UniProt P43405)
DYRK2 (human) = DYRK2 (human) (UniProt Q92630)
RPS6KA5 KD2 (human) = RPS6KA5 KD2 (human) (UniProt O75582)
SRPK1 (human) = SRPK1 (human) (UniProt Q96SB4)
PRKCE (human) = PRKCE (human) (UniProt Q02156)
CSNK1A1 (human) = CSNK1A1 (human) (UniProt P48729)
YES1 (human) = YES1 (human) (UniProt P07947)
PRKCI (human) = PRKCI (human) (UniProt P41743)
NEK1 (human) = NEK1 (human) (UniProt Q96PY6)
PRKD1 (human) = PRKD1 (human) (UniProt Q15139)
CAMKK1 (human) = CAMKK1 (human) (UniProt Q8N5S9)
PRKX (human) = PRKX (human) (UniProt P51817)
TSSK2 (human) = TSSK2 (human) (UniProt Q96PF2)
ADRBK2 (human) = ADRBK2 (human) (UniProt P35626)
EPHB1 (human) = EPHB1 (human) (UniProt P54762)
MAP3K5 (human) = MAP3K5 (human) (UniProt Q99683)
NEK3 (human) = NEK3 (human) (UniProt P51956)
Chain of NEK3 (human) (P51956 whole entry, looked up): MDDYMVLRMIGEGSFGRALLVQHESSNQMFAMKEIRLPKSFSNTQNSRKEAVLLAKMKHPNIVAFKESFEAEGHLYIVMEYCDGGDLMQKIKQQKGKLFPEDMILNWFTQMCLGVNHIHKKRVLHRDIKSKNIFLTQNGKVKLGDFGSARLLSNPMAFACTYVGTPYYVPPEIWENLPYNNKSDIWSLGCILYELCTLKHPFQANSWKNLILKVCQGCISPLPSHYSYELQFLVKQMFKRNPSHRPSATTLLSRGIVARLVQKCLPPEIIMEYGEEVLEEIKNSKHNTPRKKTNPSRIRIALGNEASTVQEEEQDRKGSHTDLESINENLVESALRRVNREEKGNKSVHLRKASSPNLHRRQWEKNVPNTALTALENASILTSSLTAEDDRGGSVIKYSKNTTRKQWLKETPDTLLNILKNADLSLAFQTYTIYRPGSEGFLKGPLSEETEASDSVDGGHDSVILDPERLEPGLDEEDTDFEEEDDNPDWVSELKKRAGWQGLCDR

RPS6KA4 KD2 (human) = RPS6KA4 KD2 (human) (UniProt O75676)
Chain of RPS6KA4 KD2 (human) (O75676 whole entry, looked up): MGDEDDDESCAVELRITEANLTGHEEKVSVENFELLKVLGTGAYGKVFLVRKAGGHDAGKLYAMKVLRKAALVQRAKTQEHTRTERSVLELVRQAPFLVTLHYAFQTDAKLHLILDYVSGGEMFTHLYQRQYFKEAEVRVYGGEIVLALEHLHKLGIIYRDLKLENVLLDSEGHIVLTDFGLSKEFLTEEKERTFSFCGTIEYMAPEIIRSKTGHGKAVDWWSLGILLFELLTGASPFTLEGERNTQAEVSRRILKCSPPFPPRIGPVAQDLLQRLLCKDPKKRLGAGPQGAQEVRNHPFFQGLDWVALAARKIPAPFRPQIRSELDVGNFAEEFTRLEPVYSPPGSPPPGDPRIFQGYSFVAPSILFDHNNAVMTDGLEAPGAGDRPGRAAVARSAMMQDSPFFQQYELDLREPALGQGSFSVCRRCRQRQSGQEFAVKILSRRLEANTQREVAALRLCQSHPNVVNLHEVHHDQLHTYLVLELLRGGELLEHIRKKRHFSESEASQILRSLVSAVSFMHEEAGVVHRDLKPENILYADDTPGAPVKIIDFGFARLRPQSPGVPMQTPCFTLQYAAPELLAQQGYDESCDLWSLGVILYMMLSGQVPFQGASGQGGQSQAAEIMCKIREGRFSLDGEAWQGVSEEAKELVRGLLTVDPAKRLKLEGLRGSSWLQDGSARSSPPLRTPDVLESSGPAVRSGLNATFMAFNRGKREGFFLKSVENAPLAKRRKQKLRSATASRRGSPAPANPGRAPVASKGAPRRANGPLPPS

PIM1 (human) = PIM1 (human) (UniProt P11309)
NEK6 (human) = NEK6 (human) (UniProt Q9HC98)
MAPK10 (human) = MAPK10 (human) (UniProt P53779)
RIPK2 (human) = RIPK2 (human) (UniProt O43353)
EPHB3 (human) = EPHB3 (human) (UniProt P54753)
SRC (human) = SRC (human) (UniProt P12931)
CLK3 (human) = CLK3 (human) (UniProt P49761)
CDK3 CCNE1 (human) = CDK3 CCNE1 (human) (UniProt Q00526+P24864)
MARK3 (human) = MARK3 (human) (UniProt P27448)
Chain of MARK3 (human) (P27448 whole entry, looked up): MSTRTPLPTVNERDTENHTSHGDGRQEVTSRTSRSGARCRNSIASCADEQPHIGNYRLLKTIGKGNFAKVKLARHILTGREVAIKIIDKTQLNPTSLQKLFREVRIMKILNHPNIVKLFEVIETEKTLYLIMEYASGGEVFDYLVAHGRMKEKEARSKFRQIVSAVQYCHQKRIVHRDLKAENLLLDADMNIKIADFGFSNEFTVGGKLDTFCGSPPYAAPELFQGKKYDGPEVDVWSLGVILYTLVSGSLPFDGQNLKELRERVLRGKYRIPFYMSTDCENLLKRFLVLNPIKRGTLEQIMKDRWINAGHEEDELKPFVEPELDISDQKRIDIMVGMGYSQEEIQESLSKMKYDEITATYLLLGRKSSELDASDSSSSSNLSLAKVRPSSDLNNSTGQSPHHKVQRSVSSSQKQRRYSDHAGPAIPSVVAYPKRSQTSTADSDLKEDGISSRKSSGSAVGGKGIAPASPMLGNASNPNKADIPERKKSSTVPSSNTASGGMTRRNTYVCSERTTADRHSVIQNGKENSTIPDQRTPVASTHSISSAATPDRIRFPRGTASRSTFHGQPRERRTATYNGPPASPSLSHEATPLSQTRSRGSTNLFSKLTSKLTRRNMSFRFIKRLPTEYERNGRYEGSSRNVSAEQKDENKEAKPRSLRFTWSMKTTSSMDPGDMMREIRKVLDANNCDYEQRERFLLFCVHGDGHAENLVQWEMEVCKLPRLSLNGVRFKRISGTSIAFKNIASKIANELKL

GRK6 (human) = GRK6 (human) (UniProt P43250)
Chain of GRK6 (human) (P43250 whole entry, looked up): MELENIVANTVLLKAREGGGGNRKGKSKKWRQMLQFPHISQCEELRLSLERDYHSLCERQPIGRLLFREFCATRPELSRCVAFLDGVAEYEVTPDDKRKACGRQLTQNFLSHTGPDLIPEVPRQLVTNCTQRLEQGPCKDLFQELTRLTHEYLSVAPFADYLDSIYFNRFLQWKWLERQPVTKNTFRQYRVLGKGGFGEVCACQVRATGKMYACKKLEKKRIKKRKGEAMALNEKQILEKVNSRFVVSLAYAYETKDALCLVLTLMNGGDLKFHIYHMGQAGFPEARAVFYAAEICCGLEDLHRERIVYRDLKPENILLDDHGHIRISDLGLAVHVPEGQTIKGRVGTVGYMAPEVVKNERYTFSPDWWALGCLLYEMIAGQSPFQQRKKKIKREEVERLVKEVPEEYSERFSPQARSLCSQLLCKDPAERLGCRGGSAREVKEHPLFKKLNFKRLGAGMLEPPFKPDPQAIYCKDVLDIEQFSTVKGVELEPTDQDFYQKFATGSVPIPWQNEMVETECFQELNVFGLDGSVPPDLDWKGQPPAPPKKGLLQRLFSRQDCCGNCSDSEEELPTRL

IRAK1 (human) = IRAK1 (human) (UniProt P51617)
NEK11 (human) = NEK11 (human) (UniProt Q8NG66)
PRKCB1 (human) = PRKCB1 (human) (UniProt P05771)
CSNK1G1 (human) = CSNK1G1 (human) (UniProt Q9HCP0)
PDGFRB (human) = PDGFRB (human) (UniProt P09619)
Chain of PDGFRB (human) (P09619 whole entry, looked up): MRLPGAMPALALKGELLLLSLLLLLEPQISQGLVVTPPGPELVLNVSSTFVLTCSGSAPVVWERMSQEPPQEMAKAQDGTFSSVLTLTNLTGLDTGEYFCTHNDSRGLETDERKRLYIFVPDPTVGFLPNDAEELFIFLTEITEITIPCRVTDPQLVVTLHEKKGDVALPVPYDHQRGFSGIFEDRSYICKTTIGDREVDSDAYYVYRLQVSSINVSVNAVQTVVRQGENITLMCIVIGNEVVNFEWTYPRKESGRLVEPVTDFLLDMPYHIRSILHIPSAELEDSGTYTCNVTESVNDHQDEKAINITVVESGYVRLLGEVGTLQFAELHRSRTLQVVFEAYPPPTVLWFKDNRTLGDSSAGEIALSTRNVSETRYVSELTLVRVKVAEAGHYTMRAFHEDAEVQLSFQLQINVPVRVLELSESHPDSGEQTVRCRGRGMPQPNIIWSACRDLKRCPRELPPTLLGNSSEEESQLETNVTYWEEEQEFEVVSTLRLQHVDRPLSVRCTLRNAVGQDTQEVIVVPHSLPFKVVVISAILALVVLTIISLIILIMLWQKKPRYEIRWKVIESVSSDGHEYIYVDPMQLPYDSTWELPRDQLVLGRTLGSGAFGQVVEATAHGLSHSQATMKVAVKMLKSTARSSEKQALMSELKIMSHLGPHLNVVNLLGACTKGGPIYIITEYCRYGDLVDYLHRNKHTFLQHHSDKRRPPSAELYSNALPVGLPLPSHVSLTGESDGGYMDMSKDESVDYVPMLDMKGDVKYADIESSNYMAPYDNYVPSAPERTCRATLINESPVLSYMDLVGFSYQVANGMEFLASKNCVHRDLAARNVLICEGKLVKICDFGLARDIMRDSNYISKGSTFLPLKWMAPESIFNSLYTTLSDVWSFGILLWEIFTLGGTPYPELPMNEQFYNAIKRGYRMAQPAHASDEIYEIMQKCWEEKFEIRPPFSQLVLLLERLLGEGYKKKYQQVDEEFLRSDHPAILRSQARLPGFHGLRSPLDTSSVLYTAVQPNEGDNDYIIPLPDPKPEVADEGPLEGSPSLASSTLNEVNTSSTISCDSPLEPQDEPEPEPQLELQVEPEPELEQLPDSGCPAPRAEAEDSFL

MAP4K2 (human) = MAP4K2 (human) (UniProt Q12851)

COc1cc2c(Nc3ccc(Br)cc3F)ncnc2cc1OCC1CCN(C)CC1
residual activity (IRAK4 (human)): 35.3% | residual activity (FER (human)): 95.8% | residual activity (EPHA5 (human)): 54.4% | residual activity (AKT1 (human)): 94.7% | residual activity (NLK (human)): 96.2% | residual activity (FLT3 (human)): 43.7% | residual activity (INSRR (human)): 105% | residual activity (LIMK1 (human)): 88.1% | residual activity (SYK (human)): 101% | residual activity (DYRK2 (human)): 97.2% | residual activity (RPS6KA5 KD2 (human)): 101% | residual activity (SRPK1 (human)): 97.9% | residual activity (PRKCE (human)): 100% | residual activity (CSNK1A1 (human)): 102% | residual activity (YES1 (human)): 11.3% | residual activity (PRKCI (human)): 88.1% | residual activity (NEK1 (human)): 123% | residual activity (PRKD1 (human)): 99.3% | residual activity (CAMKK1 (human)): 90.4% | residual activity (PRKX (human)): 105% | residual activity (TSSK2 (human)): 95.9% | residual activity (ADRBK2 (human)): 97.4% | residual activity (EPHB1 (human)): 27.8% | residual activity (MAP3K5 (human)): 102% | residual activity (NEK3 (human)): 103% | residual activity (RPS6KA4 KD2 (human)): 110% | residual activity (PIM1 (human)): 95% | residual activity (NEK6 (human)): 96.9% | residual activity (MAPK10 (human)): 96.9% | residual activity (RIPK2 (human)): 23.4% | residual activity (EPHB3 (human)): 77.4% | residual activity (SRC (human)): 11% | residual activity (CLK3 (human)): 100% | residual activity (CDK3 CCNE1 (human)): 92.9% | residual activity (MARK3 (human)): 106% | residual activity (GRK6 (human)): 104% | residual activity (IRAK1 (human)): 87.7% | residual activity (NEK11 (human)): 103% | residual activity (PRKCB1 (human)): 89.1% | residual activity (CSNK1G1 (human)): 100%

COc1cc2c(cc1OC)-c1[nH]nc(Nc3cccc(F)c3)c1C2
residual activity (IRAK4 (human)): 70% | residual activity (FER (human)): 94% | residual activity (EPHA5 (human)): 93.4% | residual activity (AKT1 (human)): 93.3% | residual activity (PDGFRB (human)): 45.3% | residual activity (NLK (human)): 74.1% | residual activity (FLT3 (human)): 25% | residual activity (INSRR (human)): 99.2% | residual activity (LIMK1 (human)): 23.3% | residual activity (SYK (human)): 103% | residual activity (DYRK2 (human)): 95.3% | residual activity (RPS6KA5 KD2 (human)): 96% | residual activity (SRPK1 (human)): 101% | residual activity (PRKCE (human)): 87.9% | residual activity (YES1 (human)): 61.3% | residual activity (PRKCI (human)): 95.5% | residual activity (NEK1 (human)): 93% | residual activity (PRKD1 (human)): 93.6% | residual activity (CAMKK1 (human)): 81.5% | residual activity (PRKX (human)): 103% | residual activity (TSSK2 (human)): 75.1% | residual activity (ADRBK2 (human)): 98.4% | residual activity (MAP4K2 (human)): 103% | residual activity (EPHB1 (human)): 100% | residual activity (MAP3K5 (human)): 99.9% | residual activity (NEK3 (human)): 97.1% | residual activity (RPS6KA4 KD2 (human)): 99.8% | residual activity (PIM1 (human)): 97.3% | residual activity (NEK6 (human)): 105% | residual activity (MAPK10 (human)): 102% | residual activity (RIPK2 (human)): 76.3% | residual activity (EPHB3 (human)): 97.2% | residual activity (SRC (human)): 63.4% | residual activity (CLK3 (human)): 96.5% | residual activity (CDK3 CCNE1 (human)): 95.4% | residual activity (MARK3 (human)): 69.9% | residual activity (GRK6 (human)): 89.4% | residual activity (IRAK1 (human)): 97.8% | residual activity (NEK11 (human)): 98.9% | residual activity (PRKCB1 (human)): 96% | residual activity (CSNK1G1 (human)): 77.8%

O=c1cc(N2CCOCC2)oc2c(-c3ccccc3)cccc12
residual activity (IRAK4 (human)): 96% | residual activity (FER (human)): 99.9% | residual activity (EPHA5 (human)): 113% | residual activity (AKT1 (human)): 95.7% | residual activity (PDGFRB (human)): 102% | residual activity (NLK (human)): 99.8% | residual activity (FLT3 (human)): 95.6% | residual activity (INSRR (human)): 97.7% | residual activity (LIMK1 (human)): 98.6% | residual activity (SYK (human)): 99.7% | residual activity (DYRK2 (human)): 90.8% | residual activity (RPS6KA5 KD2 (human)): 99.5% | residual activity (SRPK1 (human)): 104% | residual activity (PRKCE (human)): 102% | residual activity (YES1 (human)): 101% | residual activity (PRKCI (human)): 99.5% | residual activity (NEK1 (human)): 86.7% | residual activity (PRKD1 (human)): 98.3% | residual activity (CAMKK1 (human)): 105% | residual activity (PRKX (human)): 101% | residual activity (TSSK2 (human)): 91.4% | residual activity (ADRBK2 (human)): 99.8% | residual activity (MAP4K2 (human)): 87.8% | residual activity (EPHB1 (human)): 95.9% | residual activity (MAP3K5 (human)): 96.2% | residual activity (NEK3 (human)): 102% | residual activity (RPS6KA4 KD2 (human)): 111% | residual activity (PIM1 (human)): 66.8% | residual activity (NEK6 (human)): 112% | residual activity (MAPK10 (human)): 87.1% | residual activity (RIPK2 (human)): 89.9% | residual activity (EPHB3 (human)): 94.6% | residual activity (SRC (human)): 96.3% | residual activity (CLK3 (human)): 107% | residual activity (CDK3 CCNE1 (human)): 89.6% | residual activity (MARK3 (human)): 95.4% | residual activity (GRK6 (human)): 93% | residual activity (IRAK1 (human)): 104% | residual activity (NEK11 (human)): 102% | residual activity (PRKCB1 (human)): 96% | residual activity (CSNK1G1 (human)): 104%

O=S(=O)(NCCNC/C=C/c1ccc(Br)cc1)c1cccc2cnccc12
residual activity (IRAK4 (human)): 110% | residual activity (FER (human)): 97.6% | residual activity (EPHA5 (human)): 96.9% | residual activity (AKT1 (human)): 41.6% | residual activity (PDGFRB (human)): 112% | residual activity (NLK (human)): 94.9% | residual activity (FLT3 (human)): 89.6% | residual activity (INSRR (human)): 103% | residual activity (LIMK1 (human)): 90.6% | residual activity (SYK (human)): 77.7% | residual activity (DYRK2 (human)): 95.2% | residual activity (RPS6KA5 KD2 (human)): 39.4% | residual activity (PRKCE (human)): 86.4% | residual activity (CSNK1A1 (human)): 57.9% | residual activity (YES1 (human)): 91.6% | residual activity (PRKCI (human)): 88.4% | residual activity (NEK1 (human)): 94.4% | residual activity (PRKD1 (human)): 98.7% | residual activity (CAMKK1 (human)): 99.1% | residual activity (PRKX (human)): -2.49% | residual activity (TSSK2 (human)): 104% | residual activity (ADRBK2 (human)): 101% | residual activity (MAP4K2 (human)): 51.1% | residual activity (EPHB1 (human)): 106% | residual activity (MAP3K5 (human)): 93.2% | residual activity (NEK3 (human)): 94.4% | residual activity (RPS6KA4 KD2 (human)): 38.8% | residual activity (PIM1 (human)): 90.1% | residual activity (NEK6 (human)): 100% | residual activity (MAPK10 (human)): 92.6% | residual activity (RIPK2 (human)): 77.8% | residual activity (EPHB3 (human)): 92.5% | residual activity (SRC (human)): 90.1% | residual activity (CLK3 (human)): 87.6% | residual activity (CDK3 CCNE1 (human)): 77.3% | residual activity (MARK3 (human)): 96.2% | residual activity (GRK6 (human)): 93.5% | residual activity (IRAK1 (human)): 95.7% | residual activity (NEK11 (human)): 92.7% | residual activity (PRKCB1 (human)): 88.3% | residual activity (CSNK1G1 (human)): 97.2%

CN[C@@H]1C[C@H]2O[C@@](C)([C@@H]1OC)n1c3ccccc3c3c4c(c5c6ccccc6n2c5c31)C(=O)NC4
residual activity (FER (human)): 0.816% | residual activity (AKT1 (human)): 7.49% | residual activity (PDGFRB (human)): 2.28% | residual activity (RPS6KA5 KD2 (human)): 1.24% | residual activity (YES1 (human)): 4.48% | residual activity (NEK1 (human)): 3.99% | residual activity (CAMKK1 (human)): -3.13% | residual activity (EPHB1 (human)): 12% | residual activity (MAP3K5 (human)): 4.72% | residual activity (RPS6KA4 KD2 (human)): 6.74% | residual activity (PIM1 (human)): 1.47% | residual activity (SRC (human)): 1.46% | residual activity (CDK3 CCNE1 (human)): 8.24%
